Reference: patent US5756502A, “Quinazolinone derivatives as cholyecystokinin (CCK) ligands” (Warner-Lambert Company, priority 1995, dated 1998)
pKi: −log10 of the molar value. Where two headings read alike, the source gives them in different places.

How the values were obtained:
CCK-B receptor = molecular target: T1, CCK-B receptor (Mus musculus, UniProt P56481); assay: CCK-B receptor binding (displacement of tritiated-pentagastrin from mouse cerebral cortical membranes); conditions: for pKi: 2 nM tritiated-pentagastrin, Hepes buffer pH 7.2, 23° C., read-out: CCK-B (Ki)
T1 construct: from tissue; host or cells: cerebral cortex of male CFLP mice (membranes)
T1 sequence (P56481 1-453): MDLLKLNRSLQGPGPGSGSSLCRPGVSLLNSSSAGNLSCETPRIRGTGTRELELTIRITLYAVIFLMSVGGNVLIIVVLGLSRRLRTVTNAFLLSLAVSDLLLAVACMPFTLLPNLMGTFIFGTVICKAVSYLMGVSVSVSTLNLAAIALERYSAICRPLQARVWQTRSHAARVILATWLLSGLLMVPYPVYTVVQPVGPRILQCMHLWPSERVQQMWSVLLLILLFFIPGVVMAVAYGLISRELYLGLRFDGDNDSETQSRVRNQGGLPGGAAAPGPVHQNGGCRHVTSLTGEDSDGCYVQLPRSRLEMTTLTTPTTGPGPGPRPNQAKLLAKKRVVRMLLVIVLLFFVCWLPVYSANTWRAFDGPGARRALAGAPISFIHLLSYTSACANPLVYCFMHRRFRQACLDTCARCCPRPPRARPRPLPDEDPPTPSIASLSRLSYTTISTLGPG
Protocol: (§1) The biological activity of compounds of the present invention may be evaluated by employing an initial screening test which rapidly and accurately measures the binding of the tested compound to known CCK receptor sites. […] (See Hays, et al., Neuropeptides 1:53-62, 1980; and Satuer, et al., Science 208:1155-1156, 1980).
In this screening test, the cerebral cortices taken from male CFLP mice weighing between 30 to 40 g were dissected on ice, weighed, and homogenized in 10 volumes of 50 mM Tris-HCl buffer (pH 7.4 at 0°-4° C.). The resulting suspension was centrifuged, the supernate was discarded, and the pellet was washed by resuspension in Tris-HCl buffer followed by recentrifugation. The final pellet was resuspended in 20 volumes of […] buffer (pH 7.2 at 23° C.) containing 130 mM NaCl, […], […].
In saturation studies, cerebral cortical membranes were incubated at 23° C. for 120 minutes in a final volume of 500 μL of Hepes incubation buffer (pH 7.2) together with 0.2-20 nM tritiated-pentagastrin (Amersham International, England).
In the displacement experiments, membranes were incubated with a single concentration (2 nM) of ligand, together with increasing concentrations (10^-11 to 10^-6 M) of competitive test compound. In each case, the nonspecific binding was defined as that persisting in the presence of the unlabeled octapeptide CCK26-33 (10^-6 M)
Following incubation, radioactivity bound to membranes was separated from that free in solution by rapid filtration through Whatman GF/B filters and washed three times with 4 mL of ice cold Tris-HCl buffer. Filters from samples incubated with tritiated-pentagastrin were placed in polyethylene vials with 4 mL of scintillation cocktail, and the radioactivity was estimated by liquid scintillation spectrometry (efficiency 47-52%). […]
Saturation curves for specific tritiated-pentagastrin binding to mouse cortical membranes were analyzed by the methods of Scatchard (Ann. New York Acad. Sci. 51:660-672, 1949), and Hill (J. Physiol. 40:IV-VIII, 1910), to provide estimates for the maximum number of binding sites (Bmax) and the equilibrium dissociation constant (Ka)
In displacement experiments, inhibition curves were analyzed by either logit-log plots or the iterative curve fitting computer program ALLFIT (DeLean, Munson, and Redbard, 1978) to provide estimates of the IC50 and nH (apparent Hill coefficient values). […]
The inhibition constant (Ki) of the test compound was then calculated according to the Cheng-Prusoff equation: [formula] where [L] is the concentration of radiolabel and Ka is the equilibrium dissociation constant. […]

CCK-A receptor = CCK-A receptor binding; conditions: for pKi: read-out: CCK-A (Ki)
Protocol: as §1
In displacement experiments, inhibition curves were analyzed by either logit-log plots or the iterative curve fitting computer program ALLFIT (DeLean, Munson, and Redbard, 1978) to provide estimates of the IC50 and nH (apparent Hill coefficient values). (IC50 values were defined as the concentration of test compound required to produce 50% inhibition of specific binding).
The inhibition constant (Ki) of the test compound was then calculated according to the Cheng-Prusoff equation: [formula] where [L] is the concentration of radiolabel and Ka is the equilibrium dissociation constant.
The Ki values for several representative compounds of the present invention are present in Table 1.
The following table represents the CCK-A and CCK-B receptor binding affinities of the compounds. [drawing 34]
The testing procedures are disclosed in Hays, et al., Neuropeptides 1:53-62, 1980; and Satuer, et al., Science 208:1155-1156, 1980.

CCK-A receptors = conditions: words; cited from earlier work
CCK-B receptors = conditions: words; cited from earlier work

Question: With CC(C)Oc1cccc(-n2c(CNC(=O)OCc3ccccc3)nc3ccccc3c2=O)c1 as the molecule, how does the pKi (CCK-B receptor) read?
Answer: Its pKi is 6.21.

Question: Which “CCK-A, % @ 10 μM (in the Ki column)” value (CCK-A receptor; @ 10 μM) does the source give for CC(C)Oc1cccc(-n2c(CNC(=O)c3cnc4ccccc4n3)nc3ccccc3c2=O)c1 [1 -- 2-Quinoxolinyl, 2-Quinoxalinecarboxamide, N-[[1,2-dihydro-3-[3-(1-methylethoxy)phenyl]-4-oxo-2-quinazolinyl]methyl]] here?
Answer: Its value is 29%.

Question: What about the pKi (CCK-B receptor) of the same molecule?
Answer: Its pKi is 6.07.

Question: With CCOC(=O)c1cccc(NC(=O)NCc2nc3ccccc3c(=O)n2-c2cccc(OC(C)C)c2)c1 [1 NH 3-COOEtPh, Benzoic Acid, 3-[[[3,4-dihydro-3-[3-(1-methylethoxy)phenyl]-4-oxo-2-quinazolinyl]methyl]amino]carbonylamino-, ethyl ester] as the molecule, how does the pKi (CCK-A receptor) read?
Answer: The pKi was 5.83.

Question: With Cc1cccc(NC(=O)NCc2nc3ccccc3c(=O)n2-c2cccc(OC(C)C)c2)c1 [1 NH 3-MePh, Urea, N-[[3,4-dihydro-3-[3-(1-methylethoxy)phenyl]-4-2-quinazolinyl]methyl]-N-(3-methylphenyl)] as the molecule, how does the pKi (CCK-A receptor) read?
Answer: Its pKi is 5.79.

Question: With CC(C)Oc1cccc(-n2c(CNC(=O)Nc3ccc(Br)cc3)nc3ccccc3c2=O)c1 [1 NH 4-BrPh, Urea, N-(4-bromophenyl)-N-[[3,4-dihydro-3-[3-(1-methylethoxy)phenyl]-4-2-quinazolinyl]methyl]] as the molecule, how does the pKi (CCK-A receptor) read?
Answer: Its pKi is 6.01.

Question: With CC(C)Oc1cccc(-n2c(CNC(=O)NCc3ccc(Br)cc3)nc3ccccc3c2=O)c1 [1 NH 4-BrPhCH2] as the molecule, how does the pKi (CCK-A receptor) read?
Answer: The pKi was 5.51.

Question: With CC(C)Oc1cccc(-n2c(CNC(=O)Nc3ccc(C(F)(F)F)cc3)nc3ccccc3c2=O)c1 [1 NH 4-CF3 Ph] as the molecule, how does the pKi (CCK-A receptor) read?
Answer: Its pKi is 6.17.

Question: With CC(C)Oc1cccc(-n2c(CNC(=O)Nc3ccc([N+](=O)[O-])cc3)nc3ccccc3c2=O)c1 [1 NH 4-NO2 Ph] as the molecule, how does the pKi (CCK-A receptor) read?
Answer: Its pKi is 6.41.

Question: For Cc1ccc(S(=O)(=O)NC(=O)NCc2nc3ccccc3c(=O)n2-c2cccc(OC(C)C)c2)cc1 [1 NHSO2 4-CH3 Ph, Benzenesulfonamide, N-[[[[3,4-dihydro-[3-(1-methylethoxy)phenyl]-4-oxo-2-quinazolinyl]methyl]amino]carboxy]-4-methyl], which Ki (CCK-A receptor; bound printed in μM in the Ki, nM column, read-out: CCK-A Ki (cell in μM)) is on record?
Answer: The Ki was > 1 µM.

Question: What about the Ki (CCK-B receptor; bound printed in μM in the Ki, nM column, read-out: CCK-B Ki (cell in μM)) of the same molecule?
Answer: The Ki was > 1 µM.

Question: With CC(C)Oc1cccc(-n2c(CCNC(=O)Nc3ccc(Br)cc3)nc3ccccc3c2=O)c1 [2 NH 4-BrPh, Urea, N-(4-bromophenyl)-N'-[2-[3,4-dihydro-3-[3-(1-methylethoxy)phenyl]-4-oxo-2-quinazolinyl]ethyl]] as the molecule, how does the pKi (CCK-A receptor) read?
Answer: The pKi was 5.79.

Question: With CC(C)Oc1cccc(-n2c(CCNC(=O)OCc3ccccc3)nc3ccccc3c2=O)c1 [2 O PhCH2] as the molecule, how does the pKi (CCK-A receptor) read?
Answer: Its pKi is 5.56.

Question: And the pKi (CCK-B receptor)?
Answer: Its pKi is 6.11.

Question: Which “affinity for CCK-A receptors” value (CCK-A receptors) does the source give for CCK-4 here?
Answer: The value was “lower affinity”.

Question: What about the “affinity for CCK-B receptors” value (CCK-B receptors) of the same molecule?
Answer: The value was “high affinity”.

Question: What does the source list for CCK-8S: sulfated octapeptide (CCK-8S)?
Answer: affinity for CCK-A receptors (CCK-A receptors): high affinity; affinity for CCK-B receptors (CCK-B receptors): high affinity

Question: With “CCK-8d: corresponding desulfated fragment CCK-8d” as the molecule, how does the “affinity for CCK-A receptors” value (CCK-A receptors) read?
Answer: The value was “lower affinity”.

Question: For “gastrin: gastrin peptide sharing a common carboxy terminal pentapeptide sequence with CCK”, which “affinity for CCK-A receptors” value (CCK-A receptors) is on record?
Answer: The value was “lower affinity”.

Question: And the “affinity for CCK-B receptors” value (CCK-B receptors)?
Answer: The value was “high affinity”.
